Results as given in PMC6263107 (Journal of Enzyme Inhibition and Medicinal Chemistry, 2018).
Where “and” joins values, the source holds several entries; their conditions need not be identical. Equal entries are not always repeated.

What was measured:
[1] = Oxygen radical absorbance capacity assay (ORAC-FL); conditions: for ORAC: ORAC-FL, Trolox equivalents
Description: The antioxidant activity of KTs was determined using the ORAC-FL method described by Dávalos et al.[30] using fluorescein as a fluorescent probe with minor modification. Briefly, fluorescein and antioxidant were incubated in a black 96-well microplate (Nunc) for 15 min at 37 °C. The 2,2’-azobis(amidinopropane) dihydrochloride (AAPH) was then added quickly using the built-in injector of Varioskan Flash plate reader (Thermo Scientific).
Results are expressed in the Trolox equivalents (TE) unit in relation to radical scavenging properties of Trolox.

SH-SY5Y cells [2] = experiment: Neuroprotection against Aβ1–40 peptide-induced cell death (MTT); type: cell-based, human; conditions: compound 1 µM; Aβ 1–40 30 µM
SH-SY5Y cells [3] = experiment: Neuroprotection against oligomycin/rotenone-induced cell death (MTT); type: cell-based, human; conditions: compound 1 µM; O 10 µM / R 30 µM
SH-SY5Y cells [4] = experiment: Neuroprotection against Aβ1–40 peptide-induced cell death (MTT); type: cell-based, human; conditions: for Aβ1–40 (%) neuroprotection: Aβ 1–40 30 µM
Description: (§1) SH-SY5Y cell culture and treatment with compounds 2b–d and 2f. The cultures of human SH-SY5Y neuroblastoma cells kept under a CO2/air (5%/95%) humidified atmosphere at 37 °C for 24 h were treated with 100 µl of the test compounds or DMSO (0.1%) in DMEM/F12 (1:1) medium supplemented with 1% fetal bovine serum, 1X non-essential amino acids, 100 units/ml penicillin and 10 mg/ml streptomycin. Treatment medium was renewed every day for up to 48 h of treatment. MTT assay was then performed.
(§2) SH-SY5Y cells were seeded in 96-well culture plates at a density of 8 × 10^4 cells per well in DMEM/F12 (1:1) medium supplemented with 10% fetal bovine serum, 1X non-essential amino acids, 100 units/mL penicillin and 10 mg/mL streptomycin (Dutscher, France). After 24 h of incubation, the cultures were treated with 100 µl of the test compounds or DMSO (0.1%) in the same medium. Following 24 h, the cells were co-incubated with oligomycin A (10 µM)/rotenone (30 µM) (Sigma, France) or Aβ 1–40 (30 µM) with or without the tested compounds 2b–d and 2f at nontoxic concentrations against cells for an additional period of 24 h. MTT assay was then performed to determine the % of cell viability.
(§3) The ability to prevent the human neuroblastoma cell line SH-SY5Y cell death induced by toxic insults such as Αβ 1–40, implicated in ROS production and apoptosis-related signalling pathways, and oligomycin/rotenone (O/R)[39], was then assayed to determine the neuroprotective capacity of the four less hepatotoxic KTs 2b–d and 2f at nontoxic concentration against SH-SY5Y 3 and 10 µM, using melatonin and KA as reference molecules. For the evaluation of the neuroprotective effect, the cytotoxicity of O/R (10 µM/30 µM) on SH-SY5Y cell viability was determined as well as the toxicity of the selected KTs 2b–d and 2f at.

SH-SY5Y cells [5] = experiment: Neuroprotection against oligomycin/rotenone-induced cell death (MTT); type: cell-based, human; conditions: O 10 µM / R 30 µM
Description: as §1, §2, §3

HepG2 cells = experiment: in vitro; type: cell-based; conditions: at 1000 µM
Description: (§4) The culture medium was refreshed after 24 h of incubation and 100 µl of six different concentrations (1–1000 µM) of test compounds or DMSO (0.1%) were then added. The cell viability was monitored by colourimetric assay with 3-[4,5-dimethylthiazol-2-yl]-2,5-diphenyl-tetrazolium bromide (MTT).
(§5) In this sense, all new KTs were submitted to the in vitro cell viability test (MTT assay) using human hepatocellular carcinoma cell line (HepG2)[26], as the most accepted probe to evaluate hepatotoxic effects. For this experiment, six different concentrations from 1 to 1000 µM were used.

in vitro = type: cell-based; conditions: human, HepG2 cells, percent of cell viability vs DMSO-treated control, read-out: HepG2 cell viability
Description: as §4, §5

SH-SY5Y cells [6] = experiment: Toxicity of compounds on SH-SY5Y cells (MTT); type: cell-based; conditions: at 10 µM
Description: as §1

eqBuChE = molecular target: T1, eqBuChE (Equus caballus, UniProt P81908); experiment: biochemical; conditions: at 10 μM; Table 2 footnote b
T1 construct: serum horse BuChE (eqBuChE); from tissue; host or cells: horse serum
T1 sequence (P81908 whole entry): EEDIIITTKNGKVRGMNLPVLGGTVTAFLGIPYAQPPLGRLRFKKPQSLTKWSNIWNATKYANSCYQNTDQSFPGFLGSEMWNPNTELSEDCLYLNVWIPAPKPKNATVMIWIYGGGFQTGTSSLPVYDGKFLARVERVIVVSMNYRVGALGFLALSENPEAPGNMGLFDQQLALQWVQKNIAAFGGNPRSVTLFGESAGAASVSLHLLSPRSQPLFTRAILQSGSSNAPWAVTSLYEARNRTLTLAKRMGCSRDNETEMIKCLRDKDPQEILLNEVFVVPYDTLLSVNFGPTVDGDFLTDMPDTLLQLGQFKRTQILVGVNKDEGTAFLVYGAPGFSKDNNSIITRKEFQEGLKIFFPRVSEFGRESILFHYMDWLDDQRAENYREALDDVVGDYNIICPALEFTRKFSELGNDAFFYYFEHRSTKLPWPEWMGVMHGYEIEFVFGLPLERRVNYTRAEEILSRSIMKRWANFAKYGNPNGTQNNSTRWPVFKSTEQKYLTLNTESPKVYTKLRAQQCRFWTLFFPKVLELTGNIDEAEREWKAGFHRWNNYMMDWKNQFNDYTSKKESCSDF
Description: (§6) Ellman’s protocol was followed to perform the anticholinesterasic activity. Briefly, the reaction was carried out in a final volume of 3 ml of a phosphate-buffered solution (0.1 M) at pH =8.0 containing (2.625 µl, 0.35 mM) of 5,5’-dithiobis-2-nitrobenzoic acid (DTNB), 40 µl 1% w/v Bovine Albumin Serum phosphate-buffered solution (BSA), (29 µl, 0.035 U/ml) of EeAChE or (60 µl, 0.05 U/ml) of eqBuChE, and 3 µl of tested compound, which were incubated for 10 min. Then, the acetylthiocholine iodide or butyrylthiocholine was added, and the reaction was incubated for additional 15 min. The activity in absence of compound was used as control.

EeAChE = EeAChE (Electrophorus electricus, UniProt O42275); experiment: biochemical
Sequence of EeAChE (O42275 24-633): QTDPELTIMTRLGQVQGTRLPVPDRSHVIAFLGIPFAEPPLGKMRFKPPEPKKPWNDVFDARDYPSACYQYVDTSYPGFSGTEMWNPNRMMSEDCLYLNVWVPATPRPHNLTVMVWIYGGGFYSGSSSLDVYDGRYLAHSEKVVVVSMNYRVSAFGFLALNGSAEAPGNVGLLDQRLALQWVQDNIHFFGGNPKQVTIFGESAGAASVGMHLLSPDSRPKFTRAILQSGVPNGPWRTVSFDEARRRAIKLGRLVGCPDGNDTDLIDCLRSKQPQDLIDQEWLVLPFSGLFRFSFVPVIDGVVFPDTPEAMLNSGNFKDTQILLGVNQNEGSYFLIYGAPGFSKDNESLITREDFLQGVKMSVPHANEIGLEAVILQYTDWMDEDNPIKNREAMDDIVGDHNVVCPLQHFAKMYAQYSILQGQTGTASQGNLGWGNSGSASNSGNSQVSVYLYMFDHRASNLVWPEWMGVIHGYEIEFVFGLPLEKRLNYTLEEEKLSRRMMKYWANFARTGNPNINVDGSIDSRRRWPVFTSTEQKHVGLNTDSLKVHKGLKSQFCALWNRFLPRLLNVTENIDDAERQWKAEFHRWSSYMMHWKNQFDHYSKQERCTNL
Description: as §6

hAChE = molecular target: T2, hAChE (Homo sapiens, UniProt P22303); experiment: biochemical; conditions: mean ± SEM
T2 construct: 10 µl of cholinesterase obtained from human erythrocyte hemolyzate, out of blood samples; from tissue; host or cells: human erythrocyte hemolysate from blood samples
T2 sequence (P22303 32-617 isoform P22303-2 limits assumed): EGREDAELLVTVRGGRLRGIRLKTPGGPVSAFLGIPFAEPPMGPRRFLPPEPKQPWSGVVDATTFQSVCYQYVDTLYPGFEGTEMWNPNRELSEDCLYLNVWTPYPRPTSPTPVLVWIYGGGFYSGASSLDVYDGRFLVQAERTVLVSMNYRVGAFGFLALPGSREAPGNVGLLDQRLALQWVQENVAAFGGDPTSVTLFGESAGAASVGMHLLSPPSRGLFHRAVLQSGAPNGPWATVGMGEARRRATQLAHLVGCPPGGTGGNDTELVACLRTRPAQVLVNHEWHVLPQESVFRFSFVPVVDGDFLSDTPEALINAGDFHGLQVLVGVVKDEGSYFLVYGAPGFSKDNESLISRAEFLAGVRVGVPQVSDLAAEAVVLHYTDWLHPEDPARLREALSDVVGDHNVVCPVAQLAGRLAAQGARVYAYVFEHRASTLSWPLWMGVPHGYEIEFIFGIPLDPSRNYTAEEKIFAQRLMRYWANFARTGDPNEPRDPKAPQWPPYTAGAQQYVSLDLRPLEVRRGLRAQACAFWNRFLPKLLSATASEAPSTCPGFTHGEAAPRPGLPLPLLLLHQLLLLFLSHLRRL
Description: This blend was preincubated for 5 min and 20 µl of 0.01 M substrate (ATCh or BTCh) was added to initiate the reaction. […] The IC50 values are expressed as a mean ± SEM.
Next, as planned at the beginning of the project, the analysis of the antioxidant capacity of KT 2a–d, 2f–h, and 2l was carried out.

Compound: O=c1cc(CO)occ1O [KA, kojic acid, reference compound]
- ORAC [1]: 2.51 TE and 2.51 ± 0.17 TE
- Aβ1–40 (%) neuroprotection (SH-SY5Y cells [2]): 51.56 ± 0.18 %
- O/R (%) neuroprotection (SH-SY5Y cells [3]): np
- Aβ1–40 (%) neuroprotection (SH-SY5Y cells [4]; compound 3 µM): 65.11 ± 0.20 %
- O/R (%) neuroprotection (SH-SY5Y cells [5]; compound 3 µM): np

Compound: COc1cccc(C2c3oc(CO)cc(=O)c3Oc3nc4c(c(N)c32)CCCC4)c1 (centres unmarked) [KT2d, 11-amino-2-(hydroxymethyl)-12-(3-methoxyphenyl)-7,9,10,12-tetrahydropyrano [2',3':5,6] pyrano[2,3-b]quinolin-4(8H)-one]
- ORAC [1]: 4.79 TE
- ORAC ([1]; listed as 2d): 4.79±0.39 TE
- fold more potent than FA (ORAC) ([1]; vs ferulic acid): 1.3 fold
- fold less toxic than tacrine (HepG2) (HepG2 cells): six-fold less-hepatotoxic than tacrine
- viability at 1 µM (in vitro; 1 µM): 101 ± 2.5%
- viability at 3 µM (in vitro; 3 µM): 98 ± 4.1%
- viability at 10 µM (in vitro; 10 µM): 102 ± 3.2%
- viability at 30 µM (in vitro; 30 µM): 102 ± 1.8%
- viability at 100 µM (in vitro; 100 µM): 99 ± 1.1%
- viability at 300 µM (in vitro; 300 µM): 87.2 ± 6.1%
- viability at 1000 µM (in vitro; 1000 µM): 65.5 ± 1.3%
- toxicity for SH-SY5Y cells (SH-SY5Y cells [6]): nontoxic
- neuroprotection against Aβ 1–40 (SH-SY5Y cells [4]; at 3 µM and 10 µM): significant and similar neuroprotection
- Aβ1–40 (%) neuroprotection (SH-SY5Y cells [4]; compound 3 µM): 42.92 ± 0.20 %
- Aβ1–40 (%) neuroprotection (SH-SY5Y cells [4]; compound 10 µM): 41.19 ± 0.18 %
- inhibition at 10 µM (eqBuChE): < 50%
- IC50 (EeAChE; mean ± SEM): 640 ± 60 nM
- fold less active than tacrine (EeAChE) (EeAChE; ratio of IC50 values vs tacrine): approximately 20 fold
- O/R (%) neuroprotection (SH-SY5Y cells [5]; compound 3 µM): 24.35 ± 0.05 %
- O/R (%) neuroprotection (SH-SY5Y cells [5]; compound 10 µM): 12.53 ± 0.09%
- IC50 (hAChE): 4.52 ± 0.24 µM
